Consider 7 molecules from US9708314B2, “Heterocyclic amide compound” (NISSAN CHEMICAL INDUSTRIES, LTD., priority 2013, dated 2017).

Common to all, as to format: in vivo
The subject of data set [1] is directly sowed Oryza sativa. The experiment in a line: Test Example 4: effect on crop by application to foliage (diluvial soil, plastic box). The note with it: for d (directly sowed Oryza sativa) effect on crop grade: foliage application; for d (directly sowed Oryza sativa) effect on crop grade / effect on crop, d (directly sowed Oryza sativa): 320 g/ha. The method, boiled down:
(§1)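 Emulsion-formulated compound, diluted to a predetermined g/ha dose, applied by small sprayer to leaves and stems of 14-day-old seedlings grown in sterilized diluvial soil. Effect rated on 0–5 herbicidal-ratio scale three weeks on.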

For another data set, the system named is Brassica campestris L. The data set is described as above. The note with it: for g (Brassica campestris L.) effect on crop grade: foliage application; for g (Brassica campestris L.) effect on crop grade / effect on crop, g (Brassica campestris L.): 320 g/ha. The method, boiled down: as §1
Another data set concerns Triticum aestivum. Described as above. The note with it: for e (Triticum aestivum) effect on crop grade: foliage application; for e (Triticum aestivum) effect on crop grade / effect on crop, e (Triticum aestivum): 320 g/ha. The method, boiled down: as §1
For the next data set, the system named is Zea mays. The data set is described as above. The note with it: for b (Zea mays) effect on crop grade: foliage application; for b (Zea mays) effect on crop grade / effect on crop, b (Zea mays): 320 g/ha. The method, boiled down:
as §1

Data set [2] has as its system Beta vulgaris ssp. vulgaris. The data set is described as above. The note with it: for f (Beta vulgaris ssp. vulgaris) effect on crop grade: foliage application; for f (Beta vulgaris ssp. vulgaris) effect on crop grade / effect on crop, f (Beta vulgaris ssp. vulgaris): 320 g/ha. The method, boiled down: as §1
Another data set has as its system Glycine max. Described as above. The note with it: for c (Glycine max) effect on crop grade: foliage application; for c (Glycine max) effect on crop grade / effect on crop, c (Glycine max): 320 g/ha. The method, boiled down:
as §1

The subject of data set [3] is directly sowed Oryza sativa. The data set can be described thus: Test Example 3: effect on crop by application to foliage (Wagner pot, water depth 0.1-0.5 cm). The note with it: Nineteenth Table; application to foliage; application herbicide amount 320 g/ha. The method, boiled down: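 Grading uses six bands of herbicidal ratio, from 0 (≤5%, almost no effect) to 5 (≥90%, almost completely withered). Treatment was a stem-and-leaf spray of diluted emulsion at a fixed g/ha on 14-day-old plants; evaluation after three weeks.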

The test system of another data set is Galium spurium. The data set can be described thus: Test Example 4: herbicidal effect by application to foliage (diluvial soil, plastic box). The note with it: for Q (Galium spurium) herbicidal effect grade: foliage application; for Q (Galium spurium) herbicidal effect grade / herbicidal effect, Q (Galium spurium): 320 g/ha. The method, boiled down: as §1
For data set [4], the system named is transplanted Oryza sativa. The data set can be described thus: Test Example 1: effect on crop, application before weed generation in submerged conditions. The note with it: Seventeenth Table; for a: transplanted Oryza sativa (effect on crop grade): Application herbicide amount 320 g/ha; for a (transplanted Oryza sativa) effect on crop grade: application herbicide amount 320 g/ha. The method, boiled down:
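Rating, on a six-step scale from almost no effect (0) to almost completely withered (5), was made three weeks after pre-emergence treatment. Treatment was surface application to flooded pots at g/ha rates, with plants kept at 25° C. to 30° C.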

[5] abbreviates: application to foliage, application herbicide amount 320 g/ha.

Turning to `COc1cc(OC)cc(-c2nnc3c(C(=O)Nc4nnnn4C)ccc(C(F)(F)F)n23)c1` [2-063], the “d (directly sowed Oryza sativa) effect on crop grade” value in data set [1] is 4 (Herbicidal ratio of 70% or more and less than 90%). The “g (Brassica campestris L.) effect on crop grade” value in the data set with Brassica campestris L. is 4 (Herbicidal ratio of 70% or more and less than 90%). The “e (Triticum aestivum) effect on crop grade” value (shortened to “e (Triticum aestivum) effect”) with Triticum aestivum was 3 (Herbicidal ratio of 40% or more and less than 70%). In the data set on Zea mays, the “b (Zea mays) effect on crop grade” value is 4 (Herbicidal ratio of 70% or more and less than 90%). For the same molecule, in [2], the “f (Beta vulgaris ssp. vulgaris) effect on crop grade” value is 5 (Herbicidal ratio of 90% or more (almost completely withered)). Besides, the “c (Glycine max) effect on crop grade” value with Glycine max is 3 (Herbicidal ratio of 40% or more and less than 70%). In addition, the “b (effect on crop grade)” value in data set [3] is 3 (Herbicidal ratio of 40% or more and less than 70%). Further, the “Q (Galium spurium) herbicidal effect grade” value in the data set with Galium spurium is 4 (Herbicidal ratio of 70% or more and less than 90%). Also, the “a: transplanted Oryza sativa (effect on crop grade)” value (from here on “a: transplanted Oryza sativa”) in data set [4] was 4 (Herbicidal ratio of 70% or more and less than 90%).
Take `Cn1nnnc1NC(=O)c1ccc(C(F)(F)F)n2c(=O)n(C)nc12` [6-002]: the “effect on crop, d (directly sowed Oryza sativa)” value in data set [1] (application to foliage) was 3 (Herbicidal ratio of 40% or more and less than 70%). The “effect on crop, g (Brassica campestris L.)” value in the data set on Brassica campestris L. (application to foliage) is 3 (Herbicidal ratio of 40% or more and less than 70%). The “effect on crop, e (Triticum aestivum)” value in the data set with Triticum aestivum (application to foliage) was 0 (Herbicidal ratio of 5% or less (almost no effect)). The “effect on crop, b (Zea mays)” value in the data set with Zea mays (application to foliage) is listed as 0 (Herbicidal ratio of 5% or less (almost no effect)). The “effect on crop, f (Beta vulgaris ssp. vulgaris)” value (shortened to “effect on crop, f”) in data set [2] (application to foliage) was 3 (Herbicidal ratio of 40% or more and less than 70%). Moreover, the “effect on crop, c (Glycine max)” value with Glycine max (application to foliage) is 0 (Herbicidal ratio of 5% or less (almost no effect)). Further, in [3], the “b (effect on crop grade)” value is on record as 0 (Herbicidal ratio of 5% or less (almost no effect)). The “herbicidal effect, Q (Galium spurium)” value in the data set on Galium spurium (application to foliage) was 3 (Herbicidal ratio of 40% or more and less than 70%). The “a (transplanted Oryza sativa) effect on crop grade” value in data set [4] is listed as 0 (Herbicidal ratio of 5% or less (almost no effect)).
Regarding `COc1ccc(Cc2nnc3c(C(=O)Nc4nnnn4C)ccc(C(F)(F)F)n23)cc1` [2-065], in data set [1], the “d (directly sowed Oryza sativa) effect on crop grade” value is 4 (Herbicidal ratio of 70% or more and less than 90%). The “g (Brassica campestris L.) effect on crop grade” value with Brassica campestris L. is 4 (Herbicidal ratio of 70% or more and less than 90%). Besides, the “e (Triticum aestivum) effect” value with Triticum aestivum is 3 (Herbicidal ratio of 40% or more and less than 70%). In addition, the “b (Zea mays) effect on crop grade” value in the data set on Zea mays was 3 (Herbicidal ratio of 40% or more and less than 70%). In data set [2], the “f (Beta vulgaris ssp. vulgaris) effect on crop grade” value is 5 (Herbicidal ratio of 90% or more (almost completely withered)). Moreover, the “c (Glycine max) effect on crop grade” value in the data set with Glycine max is 4 (Herbicidal ratio of 70% or more and less than 90%). In data set [3], the “b (effect on crop grade)” value was 3 (Herbicidal ratio of 40% or more and less than 70%). Further, in the data set on Galium spurium, the “Q (Galium spurium) herbicidal effect grade” value was 3 (Herbicidal ratio of 40% or more and less than 70%). In data set [4], the “a: transplanted Oryza sativa” value was 2 (Herbicidal ratio of 20% or more and less than 40%).
With `C=CCN(C)c1nnc2c(C(=O)Nc3nnnn3C)ccc(C(F)(F)F)n12` [2-100], in data set [1] (application to foliage), the “effect on crop, d (directly sowed Oryza sativa)” value was 4 (Herbicidal ratio of 70% or more and less than 90%). Also, the “effect on crop, g (Brassica campestris L.)” value in the data set with Brassica campestris L. (application to foliage) is 5 (Herbicidal ratio of 90% or more (almost completely withered)). For the same molecule, in the data set on Triticum aestivum (application to foliage), the “effect on crop, e (Triticum aestivum)” value is on record as 0 (Herbicidal ratio of 5% or less (almost no effect)). Besides, the “effect on crop, b (Zea mays)” value in the data set on Zea mays (application to foliage) is reported as 5 (Herbicidal ratio of 90% or more (almost completely withered)). For the same molecule, in [2] (application to foliage), the “effect on crop, f” value was 5 (Herbicidal ratio of 90% or more (almost completely withered)). The “effect on crop, c (Glycine max)” value with Glycine max (application to foliage) was 0 (Herbicidal ratio of 5% or less (almost no effect)). Besides, in [3], the “b (effect on crop grade)” value was 3 (Herbicidal ratio of 40% or more and less than 70%). In the data set on Galium spurium (application to foliage), the “herbicidal effect, Q (Galium spurium)” value is 5 (Herbicidal ratio of 90% or more (almost completely withered)). Moreover, the “a (transplanted Oryza sativa) effect on crop grade” value in data set [4] is 3 (Herbicidal ratio of 40% or more and less than 70%).
With `COCCSc1nnc2c(C(=O)Nc3nnnn3C)ccc(C(F)(F)F)n12` [2-101], the “effect on crop, d (directly sowed Oryza sativa)” value in data set [1] (application to foliage) is 5 (Herbicidal ratio of 90% or more (almost completely withered)). Also, in the data set with Brassica campestris L. (application to foliage), the “effect on crop, g (Brassica campestris L.)” value is 5 (Herbicidal ratio of 90% or more (almost completely withered)). In the data set on Triticum aestivum (application to foliage), the “effect on crop, e (Triticum aestivum)” value was 3 (Herbicidal ratio of 40% or more and less than 70%). For the same molecule, the “effect on crop, b (Zea mays)” value in the data set with Zea mays (application to foliage) was 4 (Herbicidal ratio of 70% or more and less than 90%). Moreover, the “effect on crop, f” value in data set [2] (application to foliage) is 5 (Herbicidal ratio of 90% or more (almost completely withered)). In addition, the “effect on crop, c (Glycine max)” value in the data set on Glycine max (application to foliage) is 2 (Herbicidal ratio of 20% or more and less than 40%). In data set [3], the “b (effect on crop grade)” value is 4 (Herbicidal ratio of 70% or more and less than 90%). In the data set with Galium spurium (application to foliage), the “herbicidal effect, Q (Galium spurium)” value was 4 (Herbicidal ratio of 70% or more and less than 90%). For the same molecule, in data set [4], the “a (transplanted Oryza sativa) effect on crop grade” value was 3 (Herbicidal ratio of 40% or more and less than 70%).
In the case of `C=CCN(C)c1nnc2c(C(=O)Nc3nnco3)ccc(C(F)(F)F)n12` [1-172], the “b: effect on crop, directly sowed Oryza sativa” value in [1] (setting [5]) was 3 (Herbicidal ratio of 40% or more and less than 70%). In the data set with Brassica campestris L. (setting [5]), the “g: effect on crop, Brassica campestris L.” value was 4 (Herbicidal ratio of 70% or more and less than 90%). The “e: effect on crop, Triticum aestivum” value in the data set on Triticum aestivum (setting [5]) is 1 (Herbicidal ratio of 5% or more and less than 20%). Also, the “c: effect on crop, Zea mays” value in the data set with Zea mays (setting [5]) is reported as 0 (Herbicidal ratio of 5% or less (almost no effect)). Further, in data set [2] (setting [5]), the “f: effect on crop, Beta vulgaris ssp. vulgaris” value was 5 (Herbicidal ratio of 90% or more (almost completely withered)). For the same molecule, the “d: effect on crop, Glycine max” value with Glycine max (setting [5]) was 4 (Herbicidal ratio of 70% or more and less than 90%). The “b (effect on crop grade)” value in data set [3] was 3 (Herbicidal ratio of 40% or more and less than 70%). Moreover, in the data set with Galium spurium (setting [5]), the “Q: herbicidal effect on Galium spurium” value is 4 (Herbicidal ratio of 70% or more and less than 90%). Besides, in [4], the “a: transplanted Oryza sativa” value was 1 (Herbicidal ratio of 5% or more and less than 20%).
`Cn1nnnc1NC(=O)c1ccc(C(F)(F)F)n2c(-c3ccc(Cl)nc3)nnc12` [2-060]: the “d (directly sowed Oryza sativa) effect on crop grade” value in data set [1] is 4 (Herbicidal ratio of 70% or more and less than 90%). Moreover, the “g (Brassica campestris L.) effect on crop grade” value in the data set on Brassica campestris L. was 5 (Herbicidal ratio of 90% or more (almost completely withered)). Further, the “e (Triticum aestivum) effect” value in the data set with Triticum aestivum is 4 (Herbicidal ratio of 70% or more and less than 90%). The “b (Zea mays) effect on crop grade” value in the data set with Zea mays is on record as 5 (Herbicidal ratio of 90% or more (almost completely withered)). The “f (Beta vulgaris ssp. vulgaris) effect on crop grade” value in data set [2] is recorded as 5 (Herbicidal ratio of 90% or more (almost completely withered)). For the same molecule, the “c (Glycine max) effect on crop grade” value in the data set with Glycine max is 2 (Herbicidal ratio of 20% or more and less than 40%). In data set [3], the “b (effect on crop grade)” value was 5 (Herbicidal ratio of 90% or more (almost completely withered)). In the data set on Galium spurium, the “Q (Galium spurium) herbicidal effect grade” value is 4 (Herbicidal ratio of 70% or more and less than 90%). In addition, in data set [4], the “a: transplanted Oryza sativa” value was 5 (Herbicidal ratio of 90% or more (almost completely withered)).
